This note sets out measurements from ChEMBL document CHEMBL1146248, “Cytotoxic small molecule dimers and their inhibitory activity against human breast cancer cells” (Bioorg Med Chem Lett, 2007).

Test [1] relates to MCF7. Nature of the test: Antiproliferative activity against human estrogen receptor positive MCF7 cells after 72 hrs. It is filed as functional, cell-based. Conditions: MCF7, 72 h.
Test [2] deals with SK-BR-3. Nature of the test: Antiproliferative activity against human estrogen receptor negative SKBr3 cells overexpressing Her2 after 72 hrs. It is filed as functional, cell-based. As to conditions: SK-BR-3, 72 h.

Some results are limits rather than exact numbers.

In the case of `O=C(Nc1ccc(F)c(F)c1)c1cccc(C(=O)Nc2ccc(F)c(F)c2)n1`, the IC50 in test [1] and in test [2] was greater than 100 µM throughout.

As usually defined, the IC50 is the point on the concentration scale where inhibition reaches its midpoint. A low value points to greater potency in that assay.
